What was measured:
Conditions in all cases: treatment: drug + dasatinib (fixed dose, not stated); 5 days
769-P [1] = test: GI50 of drug in presence of dasatinib; higher = less potent
Description: (§1)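 Primary HTS combination arm: 8 RCC cell lines treated with 8 doses (up to 10 uM) of each library drug plus a fixed dose of dasatinib (dose not stated) for 5 days; viability read by CellTiter-Glo and normalised to DMSO. GI50 was fitted with XLfit, AUC is the area under the dose-response curve, and minimum viability is the lowest fraction of DMSO viability across doses.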

786-O [2] = test: as above
Description: as §1

A498 [3] = test: as above
Description: as §1

ACHN [4] = test: as above
Description: as §1

CAKI-1 [5] = test: as above
Description: as §1

SN12C [6] = test: as above
Description: as §1

TK-10 [7] = test: as above
Description: as §1

UO-31 [8] = test: as above
Description: as §1

769-P [9] = test: minimum viability across doses, drug + dasatinib, relative to DMSO (fraction); higher = less growth inhibition
Description: as §1

786-O [10] = test: as above
Description: as §1

A498 [11] = test: as above
Description: as §1

ACHN [12] = test: as above
Description: as §1

CAKI-1 [13] = test: as above
Description: as §1

SN12C [14] = test: as above
Description: as §1

TK-10 [15] = test: as above
Description: as §1

UO-31 [16] = test: as above
Description: as §1

769-P [17] = test: AUC of dose-response viability curve, drug + dasatinib, normalised to DMSO (arbitrary (AUC of normalised viability)); higher = less growth inhibition
Description: as §1

786-O [18] = test: as above
Description: as §1

A498 [19] = test: as above
Description: as §1

ACHN [20] = test: as above
Description: as §1

CAKI-1 [21] = test: as above
Description: as §1

SN12C [22] = test: as above
Description: as §1

TK-10 [23] = test: as above
Description: as §1

UO-31 [24] = test: as above
Description: as §1

Row | SMILES | GI50 of drug (769-P [1]) | GI50 of drug (786-O [2]) | GI50 of drug (A498 [3]) | GI50 of drug (ACHN [4]) | GI50 of drug (CAKI-1 [5]) | GI50 of drug (SN12C [6]) | GI50 of drug (TK-10 [7]) | GI50 of drug (UO-31 [8]) | minimum viability across doses (769-P [9]) | minimum viability across doses (786-O [10]) | minimum viability across doses (A498 [11]) | minimum viability across doses (ACHN [12]) | minimum viability across doses (CAKI-1 [13]) | minimum viability across doses (SN12C [14]) | minimum viability across doses (TK-10 [15]) | minimum viability across doses (UO-31 [16]) | AUC of dose-response viability curve (769-P [17]) | AUC of dose-response viability curve (786-O [18]) | AUC of dose-response viability curve (A498 [19]) | AUC of dose-response viability curve (ACHN [20]) | AUC of dose-response viability curve (CAKI-1 [21]) | AUC of dose-response viability curve (SN12C [22]) | AUC of dose-response viability curve (TK-10 [23]) | AUC of dose-response viability curve (UO-31 [24])
1 | CN(C)C/C=C/C(=O)Nc1cc2c(Nc3ccc(F)c(Cl)c3)ncnc2cc1O[C@H]1CCOC1 [Afatinib (BIBW2992)] + Cc1nc(Nc2ncc(C(=O)Nc3c(C)cccc3Cl)s2)cc(N2CCN(CCO)CC2)n1 [dasatinib] | 0.0291 µM | 0.953 µM | 1.49 µM | 0.00416 µM | 0.241 µM | 2.3 µM | 0.0725 µM | 0.885 µM | 0.0233 | 0.00818 | 0.00955 | 0.00184 | 0.0121 | 0.0274 | 0.0817 | 0.00619 | 1.31 | 1.92 | 2.54 | 1.02 | 1.57 | 2.02 | 1.58 | 1.88
2 | S=C(NCc1ccc2c(c1)OCO2)N1CCN(c2ncnc3c2oc2ccccc23)CC1 [Amuvatinib (MP-470)] + Cc1nc(Nc2ncc(C(=O)Nc3c(C)cccc3Cl)s2)cc(N2CCN(CCO)CC2)n1 [dasatinib] | 1.83 µM | 1.31 µM | 4.38 µM | 1.39 µM | > 10 µM | 1.97 µM | 2.92 µM | 2.68 µM | 0.282 | 0.0475 | 0.245 | 0.156 | 0.57 | 0.0599 | 0.263 | 0.0639 | 2.2 | 1.94 | 3.02 | 1.9 | 2.31 | 2.03 | 2.39 | 3.23
3 | S=C(NCc1ccc2c(c1)OCO2)N1CCN(c2ncnc3c2oc2ccccc23)CC1 [Amuvatinib (MP-470)_R2] + Cc1nc(Nc2ncc(C(=O)Nc3c(C)cccc3Cl)s2)cc(N2CCN(CCO)CC2)n1 [dasatinib] | 2.55 µM | 1.24 µM | 3.37 µM | 1.23 µM | > 10 µM | 1.63 µM | 2.64 µM | 2.84 µM | 0.219 | 0.0149 | 0.251 | 0.17 | 0.583 | 0.0319 | 0.26 | 0.0367 | 2.38 | 1.87 | 2.86 | 1.85 | 2.48 | 2.06 | 2.24 | 3.36
4 | CS(=O)(=O)O.N#CC1(c2ccc(NC(=O)c3cccnc3NCc3ccncc3)cc2)CCCC1 [Apatinib (YN968D1)] + Cc1nc(Nc2ncc(C(=O)Nc3c(C)cccc3Cl)s2)cc(N2CCN(CCO)CC2)n1 [dasatinib] | 9.47 µM | > 10 µM | > 10 µM | 6.53 µM | > 10 µM | > 10 µM | > 10 µM | > 10 µM | 0.49 | 0.624 | 0.874 | 0.389 | 0.572 | 0.656 | 0.636 | 0.988 | 2.43 | 2.64 | 3.76 | 2.18 | 2.39 | 2.45 | 2.5 | 4.78
5 | O=C1C(=O)N(Cc2ccc(Cl)c(Cl)c2)c2ccccc21 [Apoptosis Activator 2] + Cc1nc(Nc2ncc(C(=O)Nc3c(C)cccc3Cl)s2)cc(N2CCN(CCO)CC2)n1 [dasatinib] | 8.61 µM | > 10 µM | 8.37 µM | 1.99 µM | 2.23 µM | 4.6 µM | 7.39 µM | 9.07 µM | 0.486 | 0.0758 | 0.411 | 0.295 | 0.187 | 0.265 | 0.454 | 0.211 | 2.46 | 1.72 | 3.56 | 1.92 | 2.19 | 2.47 | 2.34 | 4.31
6 | CCN1CCN(C(=O)Cc2ccc(Nc3ncc(F)c(Nc4ccc(C(=O)Nc5ccccc5Cl)cc4)n3)cc2)CC1 [Aurora A Inhibitor I] + Cc1nc(Nc2ncc(C(=O)Nc3c(C)cccc3Cl)s2)cc(N2CCN(CCO)CC2)n1 [dasatinib] | 0.652 µM | 0.164 µM | 8.98 µM | 0.13 µM | 0.281 µM | 1.19 µM | 1.01 µM | 0.552 µM | 0.0246 | 0.0991 | 0.53 | 0.0307 | 0.00201 | 0.00416 | 0.275 | 0.0547 | 1.98 | 1.57 | 3.16 | 1.53 | 1.63 | 2.09 | 2.18 | 2.58
7 | CNC(=O)c1ccccc1Sc1ccc2c(/C=C/c3ccccn3)n[nH]c2c1 [Axitinib] + Cc1nc(Nc2ncc(C(=O)Nc3c(C)cccc3Cl)s2)cc(N2CCN(CCO)CC2)n1 [dasatinib] | 1.4 µM | > 10 µM | 7.69 µM | 2.98 µM | 0.439 µM | 0.622 µM | > 10 µM | 7.85 µM | 0.159 | 0.635 | 0.457 | 0.271 | 0.162 | 0.262 | 0.715 | 0.392 | 2.02 | 2.8 | 3.26 | 2.14 | 1.8 | 2.08 | 2.91 | 3.37
8 | Cn1c(=O)n(-c2ccc(C(C)(C)C#N)cc2)c2c3cc(-c4cnc5ccccc5c4)ccc3ncc21 [BEZ235 (NVP-BEZ235)] + Cc1nc(Nc2ncc(C(=O)Nc3c(C)cccc3Cl)s2)cc(N2CCN(CCO)CC2)n1 [dasatinib] | 0.0596 µM | 0.0813 µM | 0.152 µM | 0.0347 µM | 0.0737 µM | 0.164 µM | 0.306 µM | 0.129 µM | 0.0926 | 0.0643 | 0.0638 | 0.0631 | 0.0361 | 0.146 | 0.122 | 0.00603 | 1.35 | 1.44 | 1.65 | 1.23 | 1.35 | 1.63 | 1.84 | 1.66
9 | CCN1CCN(c2ccc(Nc3cc(N(C)C(=O)Nc4c(Cl)c(OC)cc(OC)c4Cl)ncn3)cc2)CC1 [BGJ398 (NVP-BGJ398)] + Cc1nc(Nc2ncc(C(=O)Nc3c(C)cccc3Cl)s2)cc(N2CCN(CCO)CC2)n1 [dasatinib] | 2.89 µM | 0.99 µM | 9.59 µM | 0.0266 µM | 0.0266 µM | 0.131 µM | 1.35 µM | 1.26 µM | 0.234 | 0.249 | 0.435 | 0.0494 | 0.0483 | 0.0804 | 0.221 | 0.00819 | 2.3 | 1.97 | 2.87 | 1.29 | 1.15 | 1.66 | 2.18 | 2.64
10 | CC[C@@H]1C(=O)N(C)c2cnc(Nc3ccc(C(=O)N[C@H]4CC[C@H](N5CCN(CC6CC6)CC5)CC4)cc3OC)nc2N1C(C)C [BI6727 (Volasertib)] + Cc1nc(Nc2ncc(C(=O)Nc3c(C)cccc3Cl)s2)cc(N2CCN(CCO)CC2)n1 [dasatinib] | 0.0432 µM | 0.0105 µM | 0.138 µM | 0.0278 µM | 0.0552 µM | 0.0586 µM | 0.16 µM | 0.151 µM | 0.0202 | 0.0043 | 0.0361 | 0.00653 | 0.00782 | 0.0772 | 0.00827 | 0.0151 | 1.16 | 0.664 | 1.83 | 1.13 | 1.25 | 1.37 | 1.61 | 2.02
11 | CC[C@@H]1C(=O)N(C)c2cnc(Nc3ccc(C(=O)NC4CCN(C)CC4)cc3OC)nc2N1C1CCCC1 [BI 2536] + Cc1nc(Nc2ncc(C(=O)Nc3c(C)cccc3Cl)s2)cc(N2CCN(CCO)CC2)n1 [dasatinib] | 0.0568 µM | 0.00879 µM | 0.0384 µM | 0.00447 µM | 0.00785 µM | 0.0321 µM | 0.405 µM | 0.0614 µM | 0.0343 | 0.0183 | 0.0692 | 0.0392 | 0.0866 | 0.052 | 0.0551 | 0.0114 | 1.28 | 0.643 | 1.51 | 0.778 | 0.981 | 1.24 | 1.68 | 1.3
12 | COC(=O)c1ccc2c(c1)NC(=O)/C2=C(\Nc1ccc(N(C)C(=O)CN2CCN(C)CC2)cc1)c1ccccc1 [BIBF1120 (Vargatef)] + Cc1nc(Nc2ncc(C(=O)Nc3c(C)cccc3Cl)s2)cc(N2CCN(CCO)CC2)n1 [dasatinib] | > 10 µM | > 10 µM | > 10 µM | 0.147 µM | 0.43 µM | 2.62 µM | > 10 µM | 1.73 µM | 0.656 | 0.694 | 0.664 | 0.23 | 0.125 | 0.412 | 0.637 | 0.128 | 2.47 | 2.98 | 3.35 | 1.73 | 1.77 | 2.3 | 2.88 | 2.64
13 | Nc1cc(C(F)(F)F)c(-c2cc(N3CCOCC3)nc(N3CCOCC3)n2)cn1 [BKM120 (NVP-BKM120)] + Cc1nc(Nc2ncc(C(=O)Nc3c(C)cccc3Cl)s2)cc(N2CCN(CCO)CC2)n1 [dasatinib] | 0.478 µM | 0.0817 µM | 1.25 µM | 0.205 µM | 0.244 µM | 0.914 µM | 0.505 µM | 0.663 µM | 0.0577 | 0.00305 | 0.101 | 0.0632 | 0.0204 | 0.0529 | 0.0741 | 0.00967 | 1.83 | 1.29 | 2.49 | 1.48 | 1.51 | 1.84 | 1.84 | 2.27

From the supplement of paper PMC8149375
